Where “and” joins values, the source holds several entries; their conditions need not be identical. Identical values can stand only once.
Assays:
[1] = biological target: T1, QuantiLum Luciferase (firefly luciferase) (Photinus pyralis, UniProt P08659); assay: pH titration of 7′-fluoroluciferin luciferase reaction; format: biochemical
T1 construct: purchased Promega Corporation El 70

[2] = biological target: T1, QuantiLum Luciferase (firefly luciferase); assay: ATP titration of luciferase reactions with luciferin and fluoroluciferins; format: biochemical
Method: AU compounds except 5’-fluoroluciferin and DTT were purchased from Sigma Chemical. To some of this reagent 5 mM ATP (Amersham/Invitrogen) was added, then serially diluted by half-logs to 0.05 mM. Reactions were initiated by adding equal volumes (0.1 ml) of reagent and DMEM medium (Gibco/Invitrogen) containing 0.1% Prionex® (Pentapharm) and 1.4×10-5 mg/ml QuantiLum™ Luciferase (Promega Corporation).
For ATP titrations for 7′-fluoroluciferin, reagent was created containing 200 mM HEPES, 200 mM PIPES, 1 mM CDTA, 0.5% Tergitol NP-9, 0.03% Benzyl dodecyldimethyl ammonium bromide, 30 mM thiourea, 10 mM magnesium sulfate, and 0.15 mM 7′-fluoroluciferin. This solution was separated into 3 parts and pH of the reagents were 7.4, 7.2 and 6.7. To some of this reagent, 10 mM ATP (Amersham/Invitrogen) was added. The ATP was serially diluted by quarter-logs from 10 mM to 0.32 mM.
Reactions were initiated by adding equal volumes (0.03 ml) of reagent and DMEM medium (Gibco/Invitrogen) containing 0.1% Prionex® (Pentapharm) and 1.4×10-5 mg/ml QuantiLum™ Luciferase (Promega Corporation).
Luminescence was measured for 0.5 seconds per well using Berthold Orion luminometer.

[3] = biological target: T1, QuantiLum Luciferase (firefly luciferase); assay: Luminescence spectra of fluoroluciferins; format: biochemical; details: pH 7.4
Method: All compounds except fluoroluciferin and ATP were purchased from Sigma Chemical. ATP was purchased from Amersham/Invitrogen.
Spectra were measured using 0.5s integration with 1 nm increments on a Spex Fluorolog.

[4] = biological target: T2, human recombinant flavin-containing monooxygenase 3 (FMO 3) (Homo sapiens, UniProt P31513); assay: Two-step luminescent FMO 3 assay; format: biochemical; details: fit of Table 33
T2 construct: purchased Sigma Chemical Company F-5053; host or cells: baculovirus infected insect cells (microsomes)
T2 sequence (P31513 1-532): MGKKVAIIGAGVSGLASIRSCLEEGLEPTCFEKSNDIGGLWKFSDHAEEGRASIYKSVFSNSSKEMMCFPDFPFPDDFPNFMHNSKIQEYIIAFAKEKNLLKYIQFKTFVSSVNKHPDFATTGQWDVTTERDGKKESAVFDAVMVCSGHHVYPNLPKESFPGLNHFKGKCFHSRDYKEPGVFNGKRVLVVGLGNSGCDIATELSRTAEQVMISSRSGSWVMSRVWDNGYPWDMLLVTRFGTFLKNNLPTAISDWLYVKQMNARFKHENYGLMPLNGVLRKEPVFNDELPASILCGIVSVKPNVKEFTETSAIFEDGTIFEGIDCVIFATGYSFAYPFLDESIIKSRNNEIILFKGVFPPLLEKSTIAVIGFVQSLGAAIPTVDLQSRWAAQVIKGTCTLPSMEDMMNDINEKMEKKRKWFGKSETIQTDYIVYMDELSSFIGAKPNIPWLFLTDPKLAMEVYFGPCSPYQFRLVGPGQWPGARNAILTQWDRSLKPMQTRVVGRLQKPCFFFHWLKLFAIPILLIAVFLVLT

[5] = biological target: T3, human recombinant monoamine oxidase A (MAO A) (Homo sapiens, UniProt P21397); assay: Two-step bioluminogenic MAO A substrate assay
T3 sequence (P21397 1-527): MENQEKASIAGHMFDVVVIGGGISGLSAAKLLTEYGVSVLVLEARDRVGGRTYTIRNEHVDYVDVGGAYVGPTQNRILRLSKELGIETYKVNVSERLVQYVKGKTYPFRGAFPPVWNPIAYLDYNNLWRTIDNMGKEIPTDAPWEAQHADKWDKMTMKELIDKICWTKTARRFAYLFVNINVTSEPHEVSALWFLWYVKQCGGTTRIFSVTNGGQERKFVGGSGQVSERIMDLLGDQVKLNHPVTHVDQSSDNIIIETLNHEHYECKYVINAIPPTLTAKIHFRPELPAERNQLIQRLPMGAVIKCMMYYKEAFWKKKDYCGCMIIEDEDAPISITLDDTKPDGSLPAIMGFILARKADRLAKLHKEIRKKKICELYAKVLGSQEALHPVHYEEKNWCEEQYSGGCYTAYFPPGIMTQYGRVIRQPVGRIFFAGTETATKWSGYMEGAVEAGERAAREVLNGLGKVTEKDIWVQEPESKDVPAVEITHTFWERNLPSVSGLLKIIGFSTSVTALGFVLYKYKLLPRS

[6] = biological target: T4, equine alcohol dehydrogenase (Equus caballus, UniProt P00327); assay: Effect of inhibitors on the conversion of luciferol by equine alcohol dehydrogenase; format: biochemical; details: luciferol + equine ADH + NAD+ with 10 μl inhibitor solution, 37° C., 30 min; duplicates #1, #2 (controls 1023, 1087)
T4 construct: purchased Sigma Chem. Co. A9589
Method: Trichloroethanol solution: A 0.48 ml sample of 2,2,2, trichloroethanol (Aldrich T5480-5) was dissolved in water.
Reactions were initiated by addition of 1.5 μl of luciferol solution. Upon addition of the luciferol solution, the reactions were mixed and placed at 37° C.

CYP2C19 = CYP2C19 (Homo sapiens, UniProt P33261); assay: biochemical
[7] = tested on: human hepatocytes (CYP3A activity)
[8] = biological target: T3, human recombinant monoamine oxidase A (MAO A); assay: MAO A inhibition (IC50) with substrate MAO-11; format: biochemical; parameters: purchased Sigma Chemical Company M-7316; host or cells: baculovirus infected insect cells (microsomes)
[9] = biological target: T5, human recombinant monoamine oxidase B (MAO B) (Homo sapiens, UniProt P27338); assay: biochemical
T5 construct: purchased Sigma Chemical Company M-7441; host or cells: baculovirus infected insect cells (microsomes)
T5 sequence (P27338 1-520): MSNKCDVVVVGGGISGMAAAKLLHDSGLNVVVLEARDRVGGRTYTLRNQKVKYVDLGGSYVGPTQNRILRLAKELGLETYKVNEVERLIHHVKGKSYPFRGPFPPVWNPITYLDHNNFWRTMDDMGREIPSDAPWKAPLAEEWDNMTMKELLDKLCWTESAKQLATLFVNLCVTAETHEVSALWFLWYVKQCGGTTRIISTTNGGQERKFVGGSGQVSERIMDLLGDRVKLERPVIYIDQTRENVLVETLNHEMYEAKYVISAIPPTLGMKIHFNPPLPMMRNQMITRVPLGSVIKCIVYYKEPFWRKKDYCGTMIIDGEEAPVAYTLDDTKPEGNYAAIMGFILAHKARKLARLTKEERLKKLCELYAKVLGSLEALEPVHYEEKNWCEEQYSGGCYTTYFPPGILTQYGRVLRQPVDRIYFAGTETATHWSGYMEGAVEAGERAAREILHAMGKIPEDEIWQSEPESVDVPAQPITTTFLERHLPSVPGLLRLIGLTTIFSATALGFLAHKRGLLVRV

T1 sequence (P08659 whole entry): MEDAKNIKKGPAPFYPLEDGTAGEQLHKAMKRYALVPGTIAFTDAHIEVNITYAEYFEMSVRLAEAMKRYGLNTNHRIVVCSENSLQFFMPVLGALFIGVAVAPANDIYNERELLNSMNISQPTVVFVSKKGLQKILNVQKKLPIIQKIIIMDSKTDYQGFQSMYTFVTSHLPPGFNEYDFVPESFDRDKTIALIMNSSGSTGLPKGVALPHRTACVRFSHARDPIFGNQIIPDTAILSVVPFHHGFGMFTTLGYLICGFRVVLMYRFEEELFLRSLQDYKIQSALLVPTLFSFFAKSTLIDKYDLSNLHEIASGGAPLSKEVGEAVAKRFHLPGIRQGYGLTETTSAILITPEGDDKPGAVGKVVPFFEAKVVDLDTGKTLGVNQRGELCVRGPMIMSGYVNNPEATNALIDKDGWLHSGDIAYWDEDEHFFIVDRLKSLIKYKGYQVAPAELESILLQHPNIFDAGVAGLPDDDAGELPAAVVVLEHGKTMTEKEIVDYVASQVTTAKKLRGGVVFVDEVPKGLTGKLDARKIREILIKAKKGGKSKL
T4 sequence (P00327 whole entry): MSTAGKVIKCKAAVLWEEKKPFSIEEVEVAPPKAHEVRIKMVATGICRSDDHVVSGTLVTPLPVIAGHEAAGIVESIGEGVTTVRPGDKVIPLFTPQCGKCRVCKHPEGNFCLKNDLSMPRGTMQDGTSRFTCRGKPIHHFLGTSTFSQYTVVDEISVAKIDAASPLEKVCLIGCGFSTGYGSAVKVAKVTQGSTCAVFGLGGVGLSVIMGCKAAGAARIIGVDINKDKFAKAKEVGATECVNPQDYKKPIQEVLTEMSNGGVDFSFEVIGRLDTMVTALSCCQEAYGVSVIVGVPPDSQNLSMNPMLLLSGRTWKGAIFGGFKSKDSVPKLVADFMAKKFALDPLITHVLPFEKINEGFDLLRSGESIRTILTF
Sequence of CYP2C19 (P33261 whole entry): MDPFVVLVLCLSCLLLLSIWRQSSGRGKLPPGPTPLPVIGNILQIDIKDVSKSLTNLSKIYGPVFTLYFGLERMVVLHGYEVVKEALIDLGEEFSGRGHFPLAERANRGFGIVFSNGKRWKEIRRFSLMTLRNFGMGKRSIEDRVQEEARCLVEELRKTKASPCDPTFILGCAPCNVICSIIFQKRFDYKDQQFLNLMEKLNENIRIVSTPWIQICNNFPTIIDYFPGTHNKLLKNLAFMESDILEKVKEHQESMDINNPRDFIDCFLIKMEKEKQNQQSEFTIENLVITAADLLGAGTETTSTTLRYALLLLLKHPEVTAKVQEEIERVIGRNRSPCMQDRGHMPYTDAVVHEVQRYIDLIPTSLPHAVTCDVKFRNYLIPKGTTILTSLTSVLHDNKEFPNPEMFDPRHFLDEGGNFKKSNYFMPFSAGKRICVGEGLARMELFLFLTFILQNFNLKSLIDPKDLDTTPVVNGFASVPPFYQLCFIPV

## O=C(O)[C@H]1CSC(c2nc3ccc(O)c(F)c3s2)=N1 [7′-fluoroluciferin]
[1]
  pH optima of firefly luciferase reaction: ~7.5
[2]
  ATP requirement of luciferase reaction: requirement for ATP is much higher
[3]
  red shift of luminescence λmax from regular luciferin: approximately 21 nm

## CNCCCOc1ccc2nc(C3=N[C@@H](C(=O)O)CS3)ccc2c1 [MAO-7, 6-(3-methylaminopropoxy)quinolinyl-luciferin]
[4]
  signal-to-background ratio at the Km value: about 8.5
[5]; Table 25
  MAO specificity by ratio RLUmax/Km: more specific substrate for MAO A
[5]; fit of Table 22
  signal-to-background ratio at the Km value: about 95

## c1cn[nH]c1 [Pyrazol, pyrazol]
[6]
  Relative Light Units: 516.4 Relative Light Units and 490.7 Relative Light Units

## NNC(=O)c1ccncc1 [isoniazid]
CYP2C19
  IC50: 76 µM

## CC(=O)N1CCN(c2ccc(OCC3COC(Cn4ccnc4)(c4ccc(Cl)cc4Cl)O3)cc2)CC1 (centres unmarked) [ketoconazole]
[7]
  CYP3A-dependent luminescence in hepatocytes: inhibition by ketoconazole of both basal and rifampicin-induced activity

## NCCc1ccccc1 [phenethylamine]
[8]
  IC50: 134 ± 9 µM
[9]
  IC50: 20 ± 2 µM

— US10745365B2, “Luminogenic and fluorogenic compounds and methods to detect molecules or conditions” (Promega Corporation, priority 2005, dated 2020)
